Measurements: ChEMBL document CHEMBL5523679, “Discovery of 1,2,3-triazole incorporated indole-piperazines as potent antitubercular agents: Design, synthesis, in vitro biological evaluation, molecular docking and ADME studies” (Bioorg Med Chem, 2024)

Experiments:
Format in all cases: functional
[1] = system: Mycobacterium tuberculosis; test: Antimycobacterial activity against Mycobacterium tuberculosis H37Rv assessed as bacterial growth inhibition by microplate Alamar blue assay
Escherichia coli [2] = test: Antibacterial activity against Escherichia coli assessed as inhibition zone at 75 ug/ml by diffusion method; conditions: read-out: IZ
Escherichia coli [3] = test: Antibacterial activity against Escherichia coli assessed as inhibition zone at 50 ug/ml by diffusion method; conditions: read-out: IZ
Escherichia coli [4] = test: Antibacterial activity against Escherichia coli assessed as inhibition zone at 25 ug/ml by diffusion method; conditions: read-out: IZ
Staphylococcus aureus [5] = test: Antibacterial activity against Staphylococcus aureus assessed as inhibition zone at 75 ug/ml by diffusion method; conditions: read-out: IZ
Staphylococcus aureus [6] = test: Antibacterial activity against Staphylococcus aureus assessed as inhibition zone at 50 ug/ml by diffusion method; conditions: read-out: IZ
Staphylococcus aureus [7] = test: Antibacterial activity against Staphylococcus aureus assessed as inhibition zone at 25 ug/ml by diffusion method; conditions: read-out: IZ
Pseudomonas aeruginosa [8] = test: Antibacterial activity against Pseudomonas aeruginosa assessed as inhibition zone at 75 ug/ml by diffusion method; conditions: read-out: IZ
Pseudomonas aeruginosa [9] = test: Antibacterial activity against Pseudomonas aeruginosa assessed as inhibition zone at 50 ug/ml by diffusion method; conditions: read-out: IZ
Pseudomonas aeruginosa [10] = test: Antibacterial activity against Pseudomonas aeruginosa assessed as inhibition zone at 25 ug/ml by diffusion method; conditions: read-out: IZ

| Structure (SMILES) | MIC [1] [µM] | zone of inhibition at 75 µg/mL (Escherichia coli [2]) [mm] | zone of inhibition at 50 µg/mL (Escherichia coli [3]) [mm] | zone of inhibition at 25 µg/mL (Escherichia coli [4]) [mm] | zone of inhibition at 75 µg/mL (Staphylococcus aureus [5]) [mm] | zone of inhibition at 50 µg/mL (Staphylococcus aureus [6]) [mm] | zone of inhibition at 25 µg/mL (Staphylococcus aureus [7]) [mm] | zone of inhibition at 75 µg/mL (Pseudomonas aeruginosa [8]) [mm] | zone of inhibition at 50 µg/mL (Pseudomonas aeruginosa [9]) [mm] | zone of inhibition at 25 µg/mL (Pseudomonas aeruginosa [10]) [mm] |
| --- | --- | --- | --- | --- | --- | --- | --- | --- | --- | --- |
| O=C(CCc1c[nH]c2ccccc12)N1CCN(S(=O)(=O)c2ccccc2)CC1 | > 120 | 15 | 12 | 10 | 20 | 15 | 12 | 15 | 10 |  |
| O=C(CCc1c[nH]c2ccccc12)N1CCN(S(=O)(=O)c2ccc(F)cc2)CC1 | > 120 | 17 | 15 | 13 | 20 | 15 | 13 | 18 | 15 | 13 |
| O=C(Cc1c[nH]c2ccccc12)N1CCN(S(=O)(=O)c2ccc(Cl)cc2)CC1 | 59.8 | 11 | 9 | 6 | 15 | 12 | 10 | 13 | 10 |  |
| Cc1ccc(S(=O)(=O)N2CCN(C(=O)CCc3c[nH]c4ccccc34)CC2)cc1 | > 120 | 18 | 15 | 13 | 15 | 13 | 10 | 18 | 15 | 10 |
| O=C(Cc1c[nH]c2ccccc12)N1CCN(S(=O)(=O)c2ccc(F)cc2)CC1 | > 120 | 18 | 15 |  | 20 | 15 | 13 | 13 | 10 |  |
| O=C(CCc1c[nH]c2ccccc12)N1CCN(C(=O)c2ccc(F)cc2)CC1 | 65.9 | 18 | 15 |  | 20 | 15 | 13 | 13 | 10 |  |
| Cc1ccc(C(=O)N2CCN(C(=O)Cc3cn(Cc4ccc(F)cc4)c4ccccc34)CC2)cc1 | 26.6 | 15 | 13 |  | 20 | 15 | 10 | 18 | 15 | 10 |
| O=C(CCc1cn(Cc2ccc(F)cc2)c2ccccc12)N1CCN(S(=O)(=O)c2ccc(F)cc2)CC1 | 23.8 | 18 | 14 |  | 23 | 18 | 15 | 12 | 10 |  |
| O=C(Cc1c[nH]c2ccccc12)N1CCN(C(=O)c2ccccc2)CC1 | > 120 | 12 | 9 | 6 | 15 | 12 | 10 | 13 | 9 |  |
| Cc1ccc(S(=O)(=O)N2CCN(C(=O)Cc3c[nH]c4ccccc34)CC2)cc1 | > 120 | 18 | 15 | 12 | 15 | 12 | 10 | 15 | 13 | 10 |
| Cc1ccc(C(=O)N2CCN(C(=O)CCc3cn(Cc4ccc(F)cc4)c4ccccc34)CC2)cc1 | 51.7 | 17 | 15 |  | 20 | 18 | 13 | 18 | 15 | 10 |
| O=C(Cc1cn(Cc2ccc(F)cc2)c2ccccc12)N1CCN(S(=O)(=O)c2ccccc2)CC1 | 50.8 | 15 | 13 |  | 20 | 18 | 15 | 18 | 15 | 10 |
| Cc1ccc(C(=O)N2CCN(C(=O)CCc3c[nH]c4ccccc34)CC2)cc1 | 66.6 | 15 | 13 |  | 15 | 13 | 10 | 15 | 10 |  |
| O=C(CCc1cn(Cc2ccc(F)cc2)c2ccccc12)N1CCN(S(=O)(=O)c2ccc(Cl)cc2)CC1 | 23.1 | 18 | 15 |  | 23 | 18 | 15 | 17 | 13 |  |
| O=C(CCc1cn(Cc2cn(Cc3ccc(F)cc3)nn2)c2ccccc12)N1CCN(S(=O)(=O)c2ccccc2C(F)(F)F)CC1 | 38.2 | 20 | 22 | 15 | 20 | 12 | 10 | 12 | 10 |  |
| Cc1ccc(S(=O)(=O)N2CCN(C(=O)CCc3cn(Cc4cn(Cc5ccc(F)cc5)nn4)c4ccccc34)CC2)cc1 | 20.8 | 20 | 20 | 15 | 20 | 15 | 12 | 15 | 13 | 9 |
| O=C(CCc1cn(Cc2ccc(F)cc2)c2ccccc12)N1CCN(S(=O)(=O)c2ccccc2)CC1 | 49.4 | 14 | 12 |  | 20 | 18 | 15 | 18 | 15 | 10 |
| O=C(CCc1cn(Cc2cn(Cc3ccc(F)cc3)nn2)c2ccccc12)N1CCN(S(=O)(=O)c2ccc(Cl)cc2)CC1 | 20.1 | 24 | 20 | 15 | 20 | 13 | 10 | 18 | 15 | 10 |
| O=C(Cc1c[nH]c2ccccc12)N1CCN(C(=O)c2ccc(Cl)cc2)CC1 | 65.5 | 12 | 10 |  | 20 | 15 | 13 | 15 | 10 |  |
| O=C(CCc1cn(Cc2cn(Cc3ccc(F)cc3)nn2)c2ccccc12)N1CCN(S(=O)(=O)c2ccc([N+](=O)[O-])cc2)CC1 | 39.6 | 20 | 18 | 15 | 20 | 12 | 6 | 12 | 10 |  |
| O=C(CCc1cn(Cc2cn(Cc3ccc(F)cc3)nn2)c2ccccc12)N1CCN(C(=O)c2ccccc2)CC1 | 22.7 | 18 | 15 |  | 20 | 10 | 13 | 12 | 10 |  |
| O=C(CCc1c[nH]c2ccccc12)N1CCN(C(=O)c2ccc(Cl)cc2)CC1 | 63.1 | 12 | 10 |  | 20 | 15 | 10 | 12 | 10 |  |
| O=C(CCc1cn(Cc2cn(Cc3ccc(F)cc3)nn2)c2ccccc12)N1CCN(C(=O)c2ccc([N+](=O)[O-])cc2)CC1 | 21 | 20 | 19 | 15 | 20 | 13 | 10 | 13 |  |  |
| O=C(O)c1cn(C2CC2)c2cc(N3CCNCC3)c(F)cc2c1=O [CIPROFLOXACIN] |  | 32 | 27 |  | 26 | 21 | 18 | 21 | 18 | 15 |
